Experimental data: ChEMBL document CHEMBL4619828, “Discovery of Potent and Orally Bioavailable Small Molecule Antagonists of Toll-like Receptors 7/8/9 (TLR7/8/9)” (ACS Med Chem Lett, 2020)

How the values were obtained:
Toll-like receptor 3 = target: T1, Toll-like receptor 3 (Homo sapiens, UniProt O15455); experiment: Antagonist activity at human TLR3 overexpressed in HEK-Blue cells assessed as inhibition of Poly IC-induced NFkappaB and AP-1 activation preincubated for 30 mins followed by Poly IC stimulation measured after 22 hrs by quanti-blue SEAP assay; format: cell-based
T1 sequence (O15455 whole entry): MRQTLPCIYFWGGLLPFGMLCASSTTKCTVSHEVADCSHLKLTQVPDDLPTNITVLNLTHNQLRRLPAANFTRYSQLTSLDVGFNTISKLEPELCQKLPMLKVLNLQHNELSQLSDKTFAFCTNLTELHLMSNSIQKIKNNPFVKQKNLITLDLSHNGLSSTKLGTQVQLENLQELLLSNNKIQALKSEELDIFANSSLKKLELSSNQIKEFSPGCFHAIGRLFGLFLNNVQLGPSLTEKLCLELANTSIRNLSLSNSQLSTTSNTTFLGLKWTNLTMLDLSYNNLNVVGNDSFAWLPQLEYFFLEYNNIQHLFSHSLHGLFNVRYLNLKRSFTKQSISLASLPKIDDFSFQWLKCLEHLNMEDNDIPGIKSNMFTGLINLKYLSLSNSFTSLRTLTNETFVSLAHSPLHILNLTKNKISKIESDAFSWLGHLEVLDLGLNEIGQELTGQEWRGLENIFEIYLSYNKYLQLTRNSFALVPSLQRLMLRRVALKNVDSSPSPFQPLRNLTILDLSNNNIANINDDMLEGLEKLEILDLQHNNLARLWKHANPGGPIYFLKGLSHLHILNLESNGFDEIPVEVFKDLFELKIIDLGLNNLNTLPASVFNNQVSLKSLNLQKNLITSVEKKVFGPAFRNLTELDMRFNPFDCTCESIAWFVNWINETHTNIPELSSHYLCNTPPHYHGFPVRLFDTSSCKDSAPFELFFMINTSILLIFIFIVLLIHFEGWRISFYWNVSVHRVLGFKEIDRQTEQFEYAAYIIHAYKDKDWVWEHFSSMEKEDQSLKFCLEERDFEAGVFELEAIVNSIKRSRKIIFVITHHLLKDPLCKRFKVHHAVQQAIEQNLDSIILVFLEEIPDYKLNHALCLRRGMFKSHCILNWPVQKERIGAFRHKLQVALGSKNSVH

[1] = Oral bioavailability in mouse at 15 mg/kg; format: ADME, organism-based; conditions: in vivo
Toll-like receptor 7 = target: T2, Toll-like receptor 7 (Mus musculus, UniProt P58681); experiment: In vivo antagonist activity at TLR7 in po dosed C57BL/6 mouse assessed as reduction of gardiquimod-induced IL-6 production pretreated for 30 mins followed by gardiquimod-stimulation and measured after 120 mins by ELISA
T2 sequence (P58681 whole entry): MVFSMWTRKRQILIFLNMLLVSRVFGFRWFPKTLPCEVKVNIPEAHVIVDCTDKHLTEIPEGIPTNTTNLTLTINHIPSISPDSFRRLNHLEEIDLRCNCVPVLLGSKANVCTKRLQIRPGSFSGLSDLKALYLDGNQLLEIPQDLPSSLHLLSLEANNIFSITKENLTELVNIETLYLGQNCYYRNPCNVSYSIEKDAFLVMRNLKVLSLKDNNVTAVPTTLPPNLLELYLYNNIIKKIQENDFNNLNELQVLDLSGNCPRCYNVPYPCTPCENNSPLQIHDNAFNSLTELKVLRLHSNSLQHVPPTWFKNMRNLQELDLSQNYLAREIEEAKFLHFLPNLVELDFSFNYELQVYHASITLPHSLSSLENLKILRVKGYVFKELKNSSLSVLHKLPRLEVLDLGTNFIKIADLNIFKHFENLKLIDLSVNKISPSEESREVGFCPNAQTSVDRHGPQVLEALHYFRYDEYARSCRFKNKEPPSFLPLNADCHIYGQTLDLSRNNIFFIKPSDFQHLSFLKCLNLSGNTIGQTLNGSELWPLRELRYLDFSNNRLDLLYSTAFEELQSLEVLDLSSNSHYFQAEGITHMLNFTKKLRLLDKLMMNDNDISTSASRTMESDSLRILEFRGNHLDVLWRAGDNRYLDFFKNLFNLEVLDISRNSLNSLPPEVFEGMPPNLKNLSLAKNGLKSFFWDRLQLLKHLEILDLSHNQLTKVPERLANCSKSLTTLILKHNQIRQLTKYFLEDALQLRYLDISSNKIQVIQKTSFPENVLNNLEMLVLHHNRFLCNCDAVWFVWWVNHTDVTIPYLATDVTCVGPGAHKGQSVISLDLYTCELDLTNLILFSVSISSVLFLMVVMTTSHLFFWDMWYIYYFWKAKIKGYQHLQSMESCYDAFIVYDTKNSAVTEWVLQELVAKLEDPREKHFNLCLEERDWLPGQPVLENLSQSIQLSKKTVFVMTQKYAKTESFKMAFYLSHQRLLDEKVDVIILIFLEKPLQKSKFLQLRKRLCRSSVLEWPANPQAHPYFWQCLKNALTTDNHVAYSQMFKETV

- IC50 (Toll-like receptor 3): 5.44 µM
- bioavailability [1]: 62%
- EC50 (Toll-like receptor 7): 0.0024 µM
SMILES: CNCCN1CCC(c2ccc3[nH]c(-c4ccc(OC)c(OC)c4)c(C(C)C)c3c2)CC1
